Measurements reported in patent publication US8710062B2, “Piperazinedione compounds” (Taipei Medical University, priority 2011, dated 2014).
Where a name gives a salt, the structure may show the parent alone.

Tests used:
Test in all cases: Kinome inhibition assay
Assay type in all cases: biochemical
CAMK2D (KCC2D) = CAMK2D (KCC2D) (Homo sapiens, UniProt Q13557)
Method: (§1) Kinome inhibition studies were conducted following the procedures described in literature. […] In general, each purified kinase was incubated with its substrate in buffer (MOPS buffer or HEPES buffer) containing an essential metal co-enzyme or cofactor, antioxidant, and ATP (gamma-P^32 radio-labeled ATP or cold ATP). Compound 2 was co-incubated with the kinase solution thus obtained for 0.5-1 hr at 37° C. The reaction was stopped by boiling the reaction solution with an extra SDS solution. The phosphorylation level of the substrate was monitored ether by quantification of the radio-labeled substrate or by quantification of phosphor-substrate specific antibodies. In each study, a reference standard was run as an integral part to ensure the validity of the experimental results obtained. The table below includes the IC50 values obtained from this experiment.

ERBB2 (HER2) = ERBB2 (HER2) (Homo sapiens, UniProt P04626)
Method: as §1

LMK1 = LMK1 (Homo sapiens, UniProt P53667)
Sequence of LMK1 (P53667 whole entry): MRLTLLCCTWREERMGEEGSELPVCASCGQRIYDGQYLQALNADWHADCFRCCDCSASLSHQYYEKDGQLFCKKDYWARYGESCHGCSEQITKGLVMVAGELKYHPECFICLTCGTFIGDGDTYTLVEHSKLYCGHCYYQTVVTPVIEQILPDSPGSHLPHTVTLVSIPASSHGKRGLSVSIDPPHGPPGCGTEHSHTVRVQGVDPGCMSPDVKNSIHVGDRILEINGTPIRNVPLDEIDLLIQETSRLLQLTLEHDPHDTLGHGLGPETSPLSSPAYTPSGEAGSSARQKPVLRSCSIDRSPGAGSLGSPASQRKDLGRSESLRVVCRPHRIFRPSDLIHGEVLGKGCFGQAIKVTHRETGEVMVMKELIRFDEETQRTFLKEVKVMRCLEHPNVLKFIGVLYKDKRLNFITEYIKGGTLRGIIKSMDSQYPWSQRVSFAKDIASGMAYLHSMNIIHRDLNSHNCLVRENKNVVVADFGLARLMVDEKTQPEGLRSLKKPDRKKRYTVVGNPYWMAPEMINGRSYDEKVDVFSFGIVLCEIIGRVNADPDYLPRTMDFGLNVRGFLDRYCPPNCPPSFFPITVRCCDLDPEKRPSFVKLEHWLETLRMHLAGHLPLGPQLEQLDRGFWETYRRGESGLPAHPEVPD
Method: as §1

CDC42BPB = CDC42BPB (Homo sapiens, UniProt Q9Y5S2)
Sequence of CDC42BPB (Q9Y5S2 whole entry): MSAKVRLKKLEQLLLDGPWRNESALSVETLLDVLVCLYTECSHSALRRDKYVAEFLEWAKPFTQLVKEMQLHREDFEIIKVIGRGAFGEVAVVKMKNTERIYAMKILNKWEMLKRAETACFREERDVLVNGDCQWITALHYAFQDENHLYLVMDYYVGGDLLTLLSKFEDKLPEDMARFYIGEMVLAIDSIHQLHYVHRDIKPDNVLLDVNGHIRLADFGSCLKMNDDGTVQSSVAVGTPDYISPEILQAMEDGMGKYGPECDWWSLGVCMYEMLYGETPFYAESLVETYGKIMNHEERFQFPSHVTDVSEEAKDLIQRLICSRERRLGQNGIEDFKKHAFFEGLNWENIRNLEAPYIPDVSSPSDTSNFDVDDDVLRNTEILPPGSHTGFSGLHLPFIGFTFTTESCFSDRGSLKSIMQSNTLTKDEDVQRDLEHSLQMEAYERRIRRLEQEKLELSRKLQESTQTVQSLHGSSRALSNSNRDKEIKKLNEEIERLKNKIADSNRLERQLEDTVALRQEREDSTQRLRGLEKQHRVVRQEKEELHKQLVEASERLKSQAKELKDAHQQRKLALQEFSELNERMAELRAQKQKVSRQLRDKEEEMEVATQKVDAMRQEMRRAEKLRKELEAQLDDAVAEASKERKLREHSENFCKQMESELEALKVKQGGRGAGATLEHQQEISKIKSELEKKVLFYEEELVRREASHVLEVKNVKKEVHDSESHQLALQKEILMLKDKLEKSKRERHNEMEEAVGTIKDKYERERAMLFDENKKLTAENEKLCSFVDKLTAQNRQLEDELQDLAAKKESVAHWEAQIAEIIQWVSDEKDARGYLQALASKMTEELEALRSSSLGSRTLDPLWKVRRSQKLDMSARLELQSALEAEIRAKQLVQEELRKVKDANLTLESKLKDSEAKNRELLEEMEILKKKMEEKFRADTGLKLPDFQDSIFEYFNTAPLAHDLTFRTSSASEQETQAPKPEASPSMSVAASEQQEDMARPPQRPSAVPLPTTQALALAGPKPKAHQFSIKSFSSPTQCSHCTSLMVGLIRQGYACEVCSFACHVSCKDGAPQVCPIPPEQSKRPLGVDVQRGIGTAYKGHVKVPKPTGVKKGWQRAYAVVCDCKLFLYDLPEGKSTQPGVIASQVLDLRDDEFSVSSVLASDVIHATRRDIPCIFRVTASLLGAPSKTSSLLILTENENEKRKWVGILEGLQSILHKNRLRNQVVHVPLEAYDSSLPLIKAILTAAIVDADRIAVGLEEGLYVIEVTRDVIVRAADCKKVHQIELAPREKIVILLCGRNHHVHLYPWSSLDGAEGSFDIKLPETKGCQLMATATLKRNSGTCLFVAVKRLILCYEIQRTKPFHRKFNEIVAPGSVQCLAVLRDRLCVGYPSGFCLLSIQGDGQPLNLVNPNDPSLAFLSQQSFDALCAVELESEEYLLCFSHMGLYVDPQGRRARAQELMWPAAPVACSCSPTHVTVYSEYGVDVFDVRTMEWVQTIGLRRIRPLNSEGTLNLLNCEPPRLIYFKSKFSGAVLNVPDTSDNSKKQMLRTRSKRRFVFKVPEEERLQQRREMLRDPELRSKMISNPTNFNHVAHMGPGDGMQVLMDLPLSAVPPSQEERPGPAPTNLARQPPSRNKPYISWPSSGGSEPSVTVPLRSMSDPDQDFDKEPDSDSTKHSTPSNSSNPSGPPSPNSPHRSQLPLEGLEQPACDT
Method: as §1

MET (HGFR) = MET (HGFR) (Homo sapiens, UniProt P08581)
Method: as §1

SGK2 = SGK2 (Homo sapiens, UniProt Q9HBY8)
Sequence of SGK2 (Q9HBY8 whole entry): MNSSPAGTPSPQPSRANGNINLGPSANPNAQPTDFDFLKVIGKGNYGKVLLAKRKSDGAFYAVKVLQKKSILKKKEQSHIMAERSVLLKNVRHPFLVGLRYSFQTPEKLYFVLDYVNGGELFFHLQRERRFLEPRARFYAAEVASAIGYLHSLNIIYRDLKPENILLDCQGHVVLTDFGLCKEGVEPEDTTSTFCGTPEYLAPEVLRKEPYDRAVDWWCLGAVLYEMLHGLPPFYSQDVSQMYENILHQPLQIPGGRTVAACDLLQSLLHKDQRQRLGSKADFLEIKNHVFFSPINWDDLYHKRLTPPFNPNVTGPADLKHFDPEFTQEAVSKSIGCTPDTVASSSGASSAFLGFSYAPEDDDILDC
Method: as §1

RET = RET (Homo sapiens, UniProt P07949)
Sequence of RET (P07949 29-1114): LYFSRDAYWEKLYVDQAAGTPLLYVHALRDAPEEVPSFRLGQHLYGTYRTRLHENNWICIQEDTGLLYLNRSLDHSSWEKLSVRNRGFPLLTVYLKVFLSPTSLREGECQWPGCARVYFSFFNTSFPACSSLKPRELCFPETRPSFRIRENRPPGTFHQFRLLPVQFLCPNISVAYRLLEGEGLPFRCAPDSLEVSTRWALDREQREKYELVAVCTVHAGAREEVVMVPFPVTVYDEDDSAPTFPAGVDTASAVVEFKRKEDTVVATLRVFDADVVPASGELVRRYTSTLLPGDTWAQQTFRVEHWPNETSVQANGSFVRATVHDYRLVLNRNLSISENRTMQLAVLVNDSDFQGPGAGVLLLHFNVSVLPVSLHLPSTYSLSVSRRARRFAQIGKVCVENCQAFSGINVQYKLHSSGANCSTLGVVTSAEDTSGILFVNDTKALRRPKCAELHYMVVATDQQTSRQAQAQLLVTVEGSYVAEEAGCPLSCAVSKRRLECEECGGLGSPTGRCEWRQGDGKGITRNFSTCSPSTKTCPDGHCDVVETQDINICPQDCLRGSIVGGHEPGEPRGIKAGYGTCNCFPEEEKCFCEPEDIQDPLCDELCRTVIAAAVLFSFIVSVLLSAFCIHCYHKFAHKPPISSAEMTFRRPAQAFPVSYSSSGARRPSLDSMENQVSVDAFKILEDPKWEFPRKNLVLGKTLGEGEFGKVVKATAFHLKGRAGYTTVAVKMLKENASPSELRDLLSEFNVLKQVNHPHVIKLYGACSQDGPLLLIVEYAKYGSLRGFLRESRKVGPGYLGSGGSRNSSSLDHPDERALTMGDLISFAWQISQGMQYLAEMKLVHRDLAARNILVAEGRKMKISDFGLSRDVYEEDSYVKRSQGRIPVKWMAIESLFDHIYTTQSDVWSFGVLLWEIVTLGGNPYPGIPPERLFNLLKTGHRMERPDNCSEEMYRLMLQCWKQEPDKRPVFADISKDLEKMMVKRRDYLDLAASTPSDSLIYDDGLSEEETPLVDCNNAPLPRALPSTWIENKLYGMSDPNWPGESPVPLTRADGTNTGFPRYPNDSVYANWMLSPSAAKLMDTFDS
Method: as §1

[1] = @ 10 μM, read-out: Single dose inhibition

Sequence of CAMK2D (KCC2D) (Q13557 whole entry): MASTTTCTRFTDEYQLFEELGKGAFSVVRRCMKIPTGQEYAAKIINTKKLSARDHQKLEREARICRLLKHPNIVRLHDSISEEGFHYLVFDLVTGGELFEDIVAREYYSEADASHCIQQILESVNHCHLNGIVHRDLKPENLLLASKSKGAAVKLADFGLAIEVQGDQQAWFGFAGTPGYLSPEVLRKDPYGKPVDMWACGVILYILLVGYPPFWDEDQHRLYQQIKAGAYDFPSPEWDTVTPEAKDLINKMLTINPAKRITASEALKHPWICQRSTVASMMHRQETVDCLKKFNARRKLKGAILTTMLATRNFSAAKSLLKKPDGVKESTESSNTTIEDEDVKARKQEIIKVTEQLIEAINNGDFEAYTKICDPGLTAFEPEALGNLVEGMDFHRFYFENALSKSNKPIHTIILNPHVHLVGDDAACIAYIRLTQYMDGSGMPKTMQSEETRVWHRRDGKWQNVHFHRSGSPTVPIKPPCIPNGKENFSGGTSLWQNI

O=c1[nH]/c(=C\c2ccc(OCc3ccncc3)cn2)c(=O)[nH]/c1=C\c1ccccc1 [Compound 2, 3-benzylidene-6-((5-(pyridin-4-ylmethoxy)pyridin-2-yl)methylene)piperazine-2,5-dione methanesulfonic acid salt]
inhibition at 10 µM (CAMK2D (KCC2D); [1]): 70% | IC50 (CAMK2D (KCC2D); CAMK2D (KCC2D), Human): 7.39 µM | inhibition at 10 µM (ERBB2 (HER2); [1]): 69% | IC50 (ERBB2 (HER2); ERBB2 (HER2), Human): 5.56 µM | inhibition at 10 µM (LMK1; [1]): 68% | IC50 (LMK1; LMK1, Human): 5.8 µM | inhibition at 10 µM (CDC42BPB; [1]): 52% | IC50 (CDC42BPB; CDC42BPB, Human): 8.18 µM | inhibition at 30 µM (MET (HGFR); @ 30 μM, read-out: Single dose inhibition): 79% | IC50 (MET (HGFR); MET (HGFR), Human): 12.3 µM | inhibition at 10 µM (SGK2; [1]): 78% | IC50 (SGK2; SGK2, Human): 3.55 µM | inhibition at 10 µM (RET; [1]): 73% | IC50 (RET; RET, Human): 4.89 µM
